According to patent US4650801A, “Anti-cancer compositions for delivering 5-fluorouracil” (Taiho Pharmaceutical Company, Ltd., priority 1978, dated 1987):

Key:
in vivo = conditions: mouse, in vivo, po
Protocol: (§1) The anti-cancer compositions of this invention are tested in mice by the following methods to determine acute toxicity, anti-cancer effect and therapeutic index
(§2) Male mice of ICR strain weighing 22±1 g are used, 5 mice in each group. A 5-fluorouracil (a) and uracil derivative (b) in the proportions listed in Tables 1-16 are suspended in a 5% solution of gum arabic to prepare a suspension, which is forcibly orally administered to each mouse through a tube at a dose of 1 ml/100 g. Over the following period of three weeks the mice are checked every day for poisoning, body weight and mortality. The LD50 is determined according to the up-and-down method 3 weeks after the administration.

male mice of ICR strain = assay: in vivo; conditions: 30240 min
Protocol: as §1, §2

sarcoma 180 = assay: Anti-cancer effect on subcutaneously transplanted sarcoma 180 in mice; assay type: in vivo, mouse
Protocol: as §1
Tissues of sarcoma 180, 2×10^6, are subcutaneously transplanted in the back of male mice of ICR strain (6 mice in each group). A 5-fluorouracil (a) and uracil derivative (b) in the proportions listed in Tables 1-16 are suspended in a 5% solution of gum arabic to prepare a suspension. Twenty-four hours after the transplantation and during the following seven consecutive days the suspension is orally given to the animal once every day. On the 10th day after the transplantation, the tumor is removed from the body and weighed to calculate the average weight (T) of the tumors in the group to which the composition has been given and the corresponding weight (C) in the control group to determine the ratio T/C.

[1] = (b) = 1(2-Tetrahydrofuryl)uracil, (b)/(a) mol ratio 1
[2] = (b) = 1(2-Tetrahydrofuryl)uracil, (b)/(a) mol ratio 2
[3] = (b) = 1(2-Tetrahydrofuryl)uracil, (b)/(a) mol ratio 5
[4] = (b) = 1Acetyluracil, (b)/(a) mol ratio 1
[5] = (b) = 1Acetyluracil, (b)/(a) mol ratio 2
[6] = (b) = 1Acetyluracil, (b)/(a) mol ratio 5
[7] = (b) = 1Cyclohexylcarbamoyluracil, (b)/(a) mol ratio 0.5
[8] = (b) = 1Cyclohexylcarbamoyluracil, (b)/(a) mol ratio 5
[9] = (b) = 1n-Hexylcarbamoyluracil, (b)/(a) mol ratio 1
[10] = (b) = 1n-Hexylcarbamoyluracil, (b)/(a) mol ratio 2
[11] = (b) = 1n-Hexylcarbamoyluracil, (b)/(a) mol ratio 10
[12] = (b) = 2'-Deoxycytidine, (b)/(a) mol ratio 1
[13] = (b) = 2'-Deoxycytidine, (b)/(a) mol ratio 2
[14] = (b) = 2'-Deoxyuridine, (b)/(a) mol ratio 1
[15] = (b) = 2'-Deoxyuridine, (b)/(a) mol ratio 2
[16] = (b) = 2'-Deoxyuridine, (b)/(a) mol ratio 20
[17] = (b) = 3Benzoyluracil, (b)/(a) mol ratio 1
[18] = (b) = 3Benzoyluracil, (b)/(a) mol ratio 2
[19] = (b) = 3Benzoyluracil, (b)/(a) mol ratio 10
[20] = (b) = 5Bromo-2'-deoxyuridine, (b)/(a) mol ratio 0.5
[21] = (b) = 5Bromo-2'-deoxyuridine, (b)/(a) mol ratio 2
[22] = (b) = 5Bromo-2'-deoxyuridine, (b)/(a) mol ratio 10
[23] = (b) = 5Bromouracil, (b)/(a) mol ratio 0.5
[24] = (b) = 5Bromouracil, (b)/(a) mol ratio 2
[25] = (b) = 5Bromouracil, (b)/(a) mol ratio 10
[26] = (b) = 5Iodouracil, (b)/(a) mol ratio 1
[27] = (b) = 5Iodouracil, (b)/(a) mol ratio 5
[28] = (b) = Cytidine, (b)/(a) mol ratio 2
[29] = (b) = Cytidine, (b)/(a) mol ratio 10
[30] = (b) = Cytosine, (b)/(a) mol ratio 10
[31] = (b) = Orotic acid, (b)/(a) mol ratio 2
[32] = (b) = Orotic acid, (b)/(a) mol ratio 20
[33] = (b) = Thymidine, (b)/(a) mol ratio 0.5
[34] = (b) = Thymidine, (b)/(a) mol ratio 2
[35] = (b) = Thymidine, (b)/(a) mol ratio 10
[36] = (b) = Thymine, (b)/(a) mol ratio 0.5
[37] = (b) = Thymine, (b)/(a) mol ratio 2
[38] = (b) = Thymine, (b)/(a) mol ratio 10
[39] = (b) = Uridine, (b)/(a) mol ratio 1
[40] = (b) = Uridine, (b)/(a) mol ratio 2
[41] = (b) = Uridine, (b)/(a) mol ratio 20
[42] = (b) = 1Cyclohexylcarbamoyluracil, (b)/(a) mol ratio 2
[43] = (b) = 2'-Deoxycytidine, (b)/(a) mol ratio 10
[44] = (b) = 5Iodouracil, (b)/(a) mol ratio 2
[45] = (b) = Orotic acid, (b)/(a) mol ratio 1

O=c1[nH]cc(F)c(=O)n1C1CCCO1 (stereo not shown) [Compound 6, 3-(2-Tetrahydrofuryl)-5-fluorouracil]
LD50 at 504 h (in vivo; [1]): 874 mg/kg
LD50 at 504 h (in vivo; [2]): 650 mg/kg
LD50 at 504 h (in vivo; [3]): 535 mg/kg
LD50 at 504 h (in vivo; [4]): 702 mg/kg
LD50 at 504 h (in vivo; [5]): 468 mg/kg
LD50 at 504 h (in vivo; [6]): 246 mg/kg
LD50 at 504 h (in vivo; [7]): 833 mg/kg
LD50 at 504 h (in vivo; [8]): 576 mg/kg
LD50 at 504 h (in vivo; [9]): 928 mg/kg
LD50 at 504 h (in vivo; [10]): 844 mg/kg
LD50 at 504 h (in vivo; [11]): 469 mg/kg
LD50 at 504 h (in vivo; [12]): 928 mg/kg
LD50 at 504 h (in vivo; [13]): 843 mg/kg
LD50 at 504 h (in vivo; [14]): 845 mg/kg
LD50 at 504 h (in vivo; [15]): 790 mg/kg
LD50 at 504 h (in vivo; [16]): 525 mg/kg
LD50 at 504 h (in vivo; [17]): 768 mg/kg
LD50 at 504 h (in vivo; [18]): 663 mg/kg
LD50 at 504 h (in vivo; [19]): 448 mg/kg
LD50 at 504 h (in vivo; [20]): 640 mg/kg
LD50 at 504 h (in vivo; [21]): 478 mg/kg
LD50 at 504 h (in vivo; [22]): 308 mg/kg
LD50 at 504 h (in vivo; [23]): 745 mg/kg
LD50 at 504 h (in vivo; [24]): 575 mg/kg
LD50 at 504 h (in vivo; [25]): 412 mg/kg
LD50 at 504 h (in vivo; [26]): 467 mg/kg
LD50 at 504 h (in vivo; [27]): 194 mg/kg
LD50 at 504 h (in vivo; [28]): 928 mg/kg
LD50 at 504 h (in vivo; [29]): 773 mg/kg
LD50 at 504 h (in vivo; [30]): 639 mg/kg
LD50 at 504 h (in vivo; [31]): 969 mg/kg
LD50 at 504 h (in vivo; [32]): 806 mg/kg
LD50 at 504 h (in vivo; [33]): 963 mg/kg
LD50 at 504 h (in vivo; [34]): 886 mg/kg
LD50 at 504 h (in vivo; [35]): 639 mg/kg
LD50 at 504 h (in vivo; [36]): 830 mg/kg
LD50 at 504 h (in vivo; [37]): 537 mg/kg
LD50 at 504 h (in vivo; [38]): 324 mg/kg
LD50 at 504 h (in vivo; [39]): 945 mg/kg
LD50 at 504 h (in vivo; [40]): 815 mg/kg
LD50 at 504 h (in vivo; [41]): 597 mg/kg
LD50 (male mice of ICR strain; [42]): 694 mg/kg
LD50 (male mice of ICR strain; [43]): 680 mg/kg
LD50 (male mice of ICR strain; [44]): 380 mg/kg
LD50 (male mice of ICR strain; [45]): 1020 mg/kg
ED50 (sarcoma 180; [1]): 51 mg/kg
ED50 (sarcoma 180; [2]): 29 mg/kg
ED50 (sarcoma 180; [3]): 18 mg/kg
ED50 (sarcoma 180; [4]): 32 mg/kg
ED50 (sarcoma 180; [5]): 26 mg/kg
ED50 (sarcoma 180; [6]): 16 mg/kg
ED50 (sarcoma 180; [7]): 55 mg/kg
ED50 (sarcoma 180; [42]): 46 mg/kg
ED50 (sarcoma 180; [8]): 33 mg/kg
ED50 (sarcoma 180; [9]): 59 mg/kg
ED50 (sarcoma 180; [10]): 41 mg/kg
ED50 (sarcoma 180; [11]): 28 mg/kg
ED50 (sarcoma 180; [12]): 59 mg/kg
ED50 (sarcoma 180; [13]): 47 mg/kg
ED50 (sarcoma 180; [43]): 34 mg/kg
ED50 (sarcoma 180; [14]): 53 mg/kg
ED50 (sarcoma 180; [15]): 42 mg/kg
ED50 (sarcoma 180; [16]): 26 mg/kg
ED50 (sarcoma 180; [17]): 42 mg/kg
ED50 (sarcoma 180; [18]): 32 mg/kg
ED50 (sarcoma 180; [19]): 25 mg/kg
ED50 (sarcoma 180; [20]): 49 mg/kg
ED50 (sarcoma 180; [21]): 30 mg/kg
ED50 (sarcoma 180; [22]): 22 mg/kg
ED50 (sarcoma 180; [23]): 39 mg/kg
ED50 (sarcoma 180; [24]): 26 mg/kg
ED50 (sarcoma 180; [25]): 21 mg/kg
ED50 (sarcoma 180; [26]): 26 mg/kg
ED50 (sarcoma 180; [44]): 17 mg/kg
ED50 (sarcoma 180; [27]): 11 mg/kg
ED50 (sarcoma 180; (b) = Cytidine, (b)/(a) mol ratio 1): 58 mg/kg
ED50 (sarcoma 180; [28]): 39 mg/kg
ED50 (sarcoma 180; [29]): 34 mg/kg
ED50 (sarcoma 180; (b) = Cytosine, (b)/(a) mol ratio 1): 56 mg/kg
ED50 (sarcoma 180; (b) = Cytosine, (b)/(a) mol ratio 2): 41 mg/kg
ED50 (sarcoma 180; [30]): 24 mg/kg
ED50 (sarcoma 180; [45]): 69 mg/kg
ED50 (sarcoma 180; [31]): 61 mg/kg
ED50 (sarcoma 180; [32]): 46 mg/kg
ED50 (sarcoma 180; [33]): 67 mg/kg
ED50 (sarcoma 180; [34]): 63 mg/kg
ED50 (sarcoma 180; [35]): 60 mg/kg
ED50 (sarcoma 180; [36]): 48 mg/kg
ED50 (sarcoma 180; [37]): 27 mg/kg
ED50 (sarcoma 180; [38]): 14 mg/kg
ED50 (sarcoma 180; [39]): 43 mg/kg
ED50 (sarcoma 180; [40]): 31 mg/kg
ED50 (sarcoma 180; [41]): 29 mg/kg
ED50 (sarcoma 180; (b)/(a) mol ratio 0 (alone), oral, 50% cancer inhibition (T/C)): 73 mg/kg
